Among the data in ChEMBL document CHEMBL3046660, “Synthesis, cytotoxic, and DNA binding studies of novel fluorinated condensed pyrano pyrazoles” (Med Chem Res, 2013) are IC50 and Activity values, retold here.

The test system of one test is MRC5. The test is described as follows: Cytotoxicity against Homo sapiens (human) MRC5 cells assessed as inhibition of cell viability by MTT assay. The format is cell-based. In general terms: Tetrazolium dyes change colour on reduction, which living cells bring about.
The next test concerns HeLa. The test is described as follows: Cytotoxicity against Homo sapiens (human) HeLa cells assessed as inhibition of cell viability by MTT assay. The format is functional, cell-based.
The subject of another test is A549. The test is described as follows: Cytotoxicity against Homo sapiens (human) A549 cells assessed as inhibition of cell viability by MTT assay. The class given is functional, cell-based.
A short description of test [1]: Binding affinity to DNA assessed as peak current at 1 mM at potential of 1.3 V by cyclic voltammetry.
Test [2] in a line: Binding affinity to DNA assessed as peak current at 1 mM at potential of 0.45 V by cyclic voltammetry.
Test [3] is described as follows: Binding affinity to DNA assessed as peak current at 1 mM measured at potential of 1.3 V at 3 hr after drug addition by cyclic voltammetry in presence of 3 mM cytosine.
Test [4] is described as follows: Binding affinity to DNA assessed as peak current at 1 mM measured at potential of 0.45 V at 3 hr after drug addition by cyclic voltammetry in presence of 3 mM cytosine.
Test [5] can be described thus: Binding affinity to DNA assessed as peak current at 1 mM measured at potential of 1.3 V at 30 min after drug addition by cyclic voltammetry in presence of 1 mM cytosine.
Test [6] can be described thus: Binding affinity to DNA assessed as peak current at 1 mM measured at potential of 1.3 V immediately after drug addition by cyclic voltammetry in presence of 1 mM cytosine.
Test [7] can be described thus: Binding affinity to DNA assessed as peak current at 1 mM measured at potential of 0.45 V immediately after drug addition by cyclic voltammetry in presence of 1 mM cytosine.

Calls of active or inactive are those of the source. The rule behind the calls is not given here.

Consider `N#CC1=C(N)Oc2c(c(C(F)(F)F)nn2-c2ccc(F)cc2)C1c1ccc([N+](=O)[O-])cc1` (stereo not given), for which the IC50 in the test on MRC5, in the test with HeLa and in the test with A549 was above 100 µM throughout.
In the case of `N#CC1=C(N)Oc2c(c(C(F)(F)F)nn2-c2cccc(Cl)c2)C1c1ccc([N+](=O)[O-])cc1` (stereo not given), the IC50 in the test on MRC5, with HeLa and with A549 was above 100 µM throughout.
As for `N#CC1=C(N)Oc2c(c(C(F)(F)F)nn2-c2ccccc2)C1c1cccs1` (stereo not given), the IC50 (commonly the point on the concentration scale where inhibition reaches its midpoint) in the test on MRC5 is above 100 µM; in the test with HeLa, 74.1 µM; with A549, 75.5 µM.
`COc1ccc(C2C(C#N)=C(N)Oc3c2c(C(F)(F)F)nn3-c2ccc(F)cc2)cc1` (stereo not given): the result in test [1], in [2], in [4], in [5] and in [7] was Active. Moreover, the half-inhibitory concentration (IC50) in the test with MRC5 is above 100 µM; in the test with HeLa, above 100 µM; with A549, 10.3 µM. For the same compound, the outcome in [3] and in test [6] was inactive.
As to `N#CC1=C(N)Oc2c(c(C(F)(F)F)nn2-c2ccc(F)cc2)C1c1cccs1` (stereo not given), the concentration for half-maximal inhibition (IC50) in the test with MRC5, in the test with HeLa and in the test with A549 was above 100 µM in each case.
Turning to `N#CC1=C(N)Oc2c(c(C(F)(F)F)nn2-c2cccc(Cl)c2)C1c1ccco1` (stereo not given), the 50% inhibitory concentration (IC50) in the test with MRC5, in the test with HeLa and in the test with A549 was above 100 µM throughout.
As to `N#CC1=C(N)Oc2c(c(C(F)(F)F)nn2-c2ccccc2)C1c1ccco1` (stereo not given), the IC50 in the test on MRC5, with HeLa and with A549 was above 100 µM in each case.
As to `Cc1ccc(C2C(C#N)=C(N)Oc3c2c(C(F)(F)F)nn3-c2ccc(F)cc2)cc1` (stereo not given), the IC50 with MRC5, with HeLa and in the test with A549 was above 100 µM throughout.
For the compound `N#CC1=C(N)Oc2c(c(C(F)(F)F)nn2-c2ccccc2)C1c1ccc([N+](=O)[O-])cc1` (stereo not given), the IC50 in the test on MRC5, in the test on HeLa and in the test with A549 was above 100 µM in each case.
`COc1cccc(C2C(C#N)=C(N)Oc3c2c(C(F)(F)F)nn3-c2ccccc2)c1` (stereo not given): the IC50 in the test on MRC5, in the test with HeLa and in the test on A549 was above 100 µM in each case.
With `COc1ccc(C2C(C#N)=C(N)Oc3c2c(C(F)(F)F)nn3-c2cccc(Cl)c2)cc1` (stereo not given), the values for the IC50 in the test with MRC5, in the test on HeLa and with A549 were above 100 µM, above 100 µM and 89.4 µM, respectively.
